Experimental data reported in US10011629B2, “Nucleoside analogs for treatment of the flaviviridae family of viruses and cancer” (Cocrystal Pharma, Inc., priority 2015, dated 2018).
Read-outs that look alike come from different tables or passages of the source.

Key:
[1] = target: HCV NS5B RNA polymerase GT 3a WT; test: NS5B enzyme assay, GT 3a WT; type: biochemical; conditions: NS5B enzyme GT 3a WT; average of two to three replicates ± SD
Protocol: The 21-amino-acid C-terminal truncated HCV NS5B RNA polymerase can be cloned from the HCV replicon cells, modified with a six-His-terminal tail, expressed in a prokaryotic expression vector (pQE60; Qiagen), and subsequently purified over a Talon cobalt affinity resin column (Clontech, Palo Alto, Calif.).^1 Purification can be monitored by SDS-PAGE and Western blotting. The resulting purified protein can be dialyzed overnight against 50 mM sodium phosphate (pH 8.0)-300 mM sodium chloride-0.5% Triton X-100-50% glycerol-2 mM dithiothreitol. The dialysate maintains consistent activity for more than 6 months when stored at −20° C. Protein can be quantified with the Coomassie Plus protein assay reagent (Pierce) by using a bovine serum albumin standard from the same supplier.
NS5B RNA polymerase reaction can be studied by monitoring the incorporation of ^32P-labeled UMP into the newly synthesized RNA strand by using minus IRES as the template. […] After the membrane is rinsed with water followed by rinsing with ethanol, the dots can be cut out and the radioactivity counted in a Packard liquid scintillation counter. The amount of product can be calculated on the basis of the total radioactivity in the reaction mixture. The rate of the reaction can be determined from the slope of the time course of product formation. […]

[2] = Cytotoxicity in HCV replicon assay (ΔCt rRNA); type: cell-based; conditions: human
Protocol: (§1) Huh 7 Clone B cells containing HCV Replicon RNA were seeded in a 96-well plate at 5000 cells/well, and the compounds tested at 10 μM in triplicate immediately after seeding. Following five days incubation (37° C., 5% CO2), total cellular RNA was isolated by using versaGene RNA purification kit from Gentra. Replicon RNA and an internal control (TaqMan rRNA control reagents, Applied Biosystems) were amplified in a single step multiplex Real Time RT-PCR Assay. The antiviral effectiveness of the compounds was calculated by subtracting the threshold RT-PCR cycle of the test compound from the threshold RT-PCR cycle of the no-drug control (ΔCt HCV). A ΔCt of 3.3 equals a 1-log reduction (equal to 90% less starting material) in Replicon RNA levels. The cytotoxicity of the compounds was also calculated by using the ΔCt rRNA values. 2′-C-Me-C was used as the positive control. To determine EC90 and IC50 values^2, ΔCt: values were first converted into fraction of starting material^3 and then were used to calculate the % inhibition.

[3] = system: mitochondrial DNA (COXII gene) in HepG2 cells; test: Mitochondrial DNA level in HepG2 cells (real-time PCR)
Protocol: This assay was used in all studies described in this application that determine the effect of compounds on mitochondrial DNA content. In this assay, low-passage-number HepG2 cells were seeded at 5,000 cells/well in collagen-coated 96-well plates. Test compounds were added to the medium to obtain final concentrations of 0 μM, 0.1 μM, 10 μM and 100 μM. […] The mitochondrial cytochrome c oxidase subunit II (COXII) gene and the ß-actin or rRNA gene were amplified from 5 μl of the eluted nucleic acids using a multiplex Q-PCR protocol with suitable primers and probes for both target and reference amplifications. […] For exon 3 of the ß-actin gene (GenBank accession number E01094) the sense, probe, and antisense primers are 5′-[…]-3′ (SEQ ID NO. 4), 5′-6-[…]-3′ (SEQ ID NO. 5) and 5′-[…]-3′ (SEQ ID NO. 6), respectively. The primers and probes for the rRNA gene are commercially available from Applied Biosystems. […] The arithmetic formula for this approach is given by 2-ΔΔCT, where ΔΔCT is (CT for average target test sample−CT for target control)−(CT for average reference test−CT for reference control) (see Johnson M R, K Wang, J B Smith, M J Heslin, R B Diasio. Quantitation of dihydropyrimidine dehydrogenase expression by real-time reverse transcription polymerase chain reaction. Anal. Biochem. 2000; 278:175-184). A decrease in mitochondrial DNA content in cells grown in the presence of drug indicated mitochondrial toxicity.

Huh-7 cells = test: Cellular pharmacology in Huh7 cells (intracellular metabolites); conditions: Huh-7 cells, 50 μM, 4 hr
Protocol: Ice-cold 70% methanol was used as the extraction solvent. ddATP (10 nM) was used as the internal standard.

[4] = system: nuclear DNA (ß-actin or rRNA gene) in HepG2 cells; test: Nuclear DNA level in HepG2 cells (real-time PCR); type: cell-based, human; conditions: Homo sapiens, 336 h, HepG2 cells, 14-day assay
Protocol: This assay was used in all studies described in this application that determine the effect of compounds on mitochondrial DNA content. In this assay, low-passage-number HepG2 cells were seeded at 5,000 cells/well in collagen-coated 96-well plates. Test compounds were added to the medium to obtain final concentrations of 0 μM, 0.1 μM, 10 μM and 100 μM. […] The mitochondrial cytochrome c oxidase subunit II (COXII) gene and the ß-actin or rRNA gene were amplified from 5 μl of the eluted nucleic acids using a multiplex Q-PCR protocol with suitable primers and probes for both target and reference amplifications. […] For exon 3 of the ß-actin gene (GenBank accession number E01094) the sense, probe, and antisense primers are 5′-[…]-3′ (SEQ ID NO. 4), 5′-6-[…]-3′ (SEQ ID NO. 5) and 5′-[…]-3′ (SEQ ID NO. 6), respectively. The primers and probes for the rRNA gene are commercially available from Applied Biosystems. […] The comparative CT method uses arithmetic formulas in which the amount of target (COXII gene) is normalized to the amount of an endogenous reference (the B-actin or rRNA gene) and is relative to a calibrator (a control with no drug at day 7). The arithmetic formula for this approach is given by 2-ΔΔCT, where ΔΔCT is (CT for average target test sample−CT for target control)−(CT for average reference test−CT for reference control) (see Johnson M R, K Wang, J B Smith, M J Heslin, R B Diasio. Quantitation of dihydropyrimidine dehydrogenase expression by real-time reverse transcription polymerase chain reaction. Anal. Biochem. 2000; 278:175-184). A decrease in mitochondrial DNA content in cells grown in the presence of drug indicated mitochondrial toxicity.

[5] = system: HCV 1b (Huh 7 Clone B cells containing HCV Replicon RNA); test: HCV replicon assay; type: cell-based; conditions: Hepatitis C virus, Huh-7, read-out: EC90 (μM or letter value) or % inhib HCV
Protocol: as §1, with “inhibition. […]” for “inhibition.”

[6] = Assay for bone marrow cytotoxicity; type: cell-based, human; conditions: human, primary bone marrow mononuclear cells; organization LOBP; read-out: Bone marrow toxicity, CC50
Protocol: Primary human bone marrow mononuclear cells can be obtained commercially from Cambrex Bioscience (Walkersville, Md.). CFU-GM assays is carried out using a bilayer soft agar in the presence of 50 units/mL human recombinant granulocyte/macrophage colony-stimulating factor, while BFU-E assays used a […] matrix containing 1 unit/mL erythropoietin (see Sommadossi J P, Carlisle R. Toxicity of 3′-azido-3′-deoxythymidine and 9-(1,3-dihydroxy-2-propoxymethyl) guanine for normal human hepatopoietic progenitor cells in vitro. Antimicrob. Agents Chemother. 1987; 31: 452-454; Sommadossi, J P, Schinazi, R F, Chu, C K, and Xie, M Y. Comparison of cytotoxicity of the (−) and (+) enantiomer of 2′,3′-dideoxy-3′-thiacytidine in normal human bone marrow progenitor cells. Biochem. Pharmacol. 1992; 44:1921-1925). Each experiment can be performed in duplicate in cells from three different donors. AZT is used as a positive control. […] Statistical analysis can be performed with Student's t test for independent non-paired samples.

HepG2 cells = test: Lactic acid production in HepG2 cells; type: cell-based, human; conditions: 14-day assay
Protocol: To measure the effects of the compounds on lactic acid production, HepG2 cells from a stock culture were diluted and plated in 12-well culture plates at 2.5×10^4 cells per well. […] […] The culture medium was then filtered, and the lactic acid content in the medium was determined using a colorimetric lactic acid assay (Sigma-Aldrich). Since lactic acid product can be considered a marker for impaired mitochondrial function, elevated levels of lactic acid production detected in cells grown in the presence of test compounds would indicate a drug-induced cytotoxic effect.

[7] = Homo sapiens, HepG2, read-out: % inhibition MitDNA

SMILES | EC50 [1] [µM] | CC50 at 5 days [2] [µM] | Summary (mitochondrial toxicity) [3] | inhibition at 10 µM [3, 7] [%] | inhibition at 50 µM [3, 7] [%] | IC50 ([3]; Homo sapiens, HepG2, read-out: IC50 MitDNA) [µM] | Summary (mitochondrial toxicity) ([3]; human, 14 days) | MitDNA Content (% of control) ([3]; human, 14 days, 10 μM) | MitDNA Content (% of control) ([3]; human, 14 days, 50 μM) | intracellular 7-DP (Huh-7 cells) | intracellular 7-MP (Huh-7 cells) | intracellular 7-TP (Huh-7 cells) | intracellular 9 (Huh-7 cells) | inhibition at 10 µM ([4]; 10 μM, read-out: % inhibition nDNA) [%] | inhibition at 50 µM ([4]; 50 μM, read-out: % inhibition nDNA) [%] | IC50 ([4]; read-out: IC50 nDNA) [µM] | EC90 [5] [µM] | CC50 [6] [µM] | Lactic acid Production (% of control) (HepG2 cells; 10 μM) | Lactic acid Production (% of control) (HepG2 cells; 50 μM)
C[C@@]1(O)[C@H](O)[C@@H](COP(=O)(O)OP(=O)(O)OP(=O)(O)O)O[C@H]1n1ccc(=O)[nH]c1=O [2′-Me-UTP] | 1.8 |  |  |  |  |  |  |  |  |  |  |  |  |  |  |  |  |  |  | 
O=c1ccn([C@@H]2O[C@H](CO)[C@@H](O)[C@@]2(F)Br)c(=O)[nH]1 [Compound 7, 2′-Deoxy-2′-Bromo-2′-Fluoro Uridine] |  | > 10 | not toxic | < 1 | 13.5 | > 50 | non-toxic up to 10 μM | 117 (98-138) % of control | 72 (63-83) % of control | BLOQ | BLOQ | BLOQ | BLOQ | 4.4 | < 1 | > 50 | > 10 | > 100 | 85.0 ± 16.3 % of control | 69.0 ± 13.5 % of control
